The target in the test is T1, SGK1 (Homo sapiens, UniProt O00141).
T1 sequence (O00141 1-431): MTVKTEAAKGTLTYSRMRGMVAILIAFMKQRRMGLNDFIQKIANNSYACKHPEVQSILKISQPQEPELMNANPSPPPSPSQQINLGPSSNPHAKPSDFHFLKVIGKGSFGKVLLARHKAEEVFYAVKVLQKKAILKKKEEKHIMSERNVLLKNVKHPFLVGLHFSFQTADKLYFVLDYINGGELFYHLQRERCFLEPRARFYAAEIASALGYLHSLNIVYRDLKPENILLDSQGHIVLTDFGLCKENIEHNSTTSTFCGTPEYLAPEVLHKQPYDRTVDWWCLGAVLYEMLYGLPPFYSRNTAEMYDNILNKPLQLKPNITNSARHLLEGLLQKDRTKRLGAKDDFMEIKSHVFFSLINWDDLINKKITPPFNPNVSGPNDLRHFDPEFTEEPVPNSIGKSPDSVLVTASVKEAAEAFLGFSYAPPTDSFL
As to the kind of experiment: SGK1 inhibition Assay B (Echo mass spectrometry of phosphorylated peptide product). The test is classed as biochemical. The settings on record: 60 min at room temperature.

For orientation: IC50 means the concentration that inhibits the measured activity by half. High values mean a need for much substance, low ones inhibition by little substance. As to `CC(C)N1[C@@H]2CCC[C@H]1C[C@H](Oc1cc(Cl)sc1C(=O)N[C@@H]1CCCN(c3cc(-c4cc(F)c(=O)n(CC(F)F)c4)n4ncnc(N)c34)C1)C2` [Example 968, N—((R)-1-(4-amino-7-(1-(2,2-difluoroethyl)-5-fluoro-6-oxo-1,6-dihydropyridin-3-yl)pyrrolo[2,1-f][1,2,4]triazin-5-yl)piperidin-3-yl)-5-chloro-3-(((1R,3s,5S)-9-isopropyl-9-azabicyclo[3.3.1]nonan-3-yl)oxy)thiophene-2-carboxamide], 2 nM corresponded to half-maximal inhibition (IC50).
Next, `CC(C)S(=O)(=O)c1ccc(-c2cc(N3CCC[C@@H](NC(=O)c4sc(Cl)cc4O[C@@H]4C[C@H]5CC[C@@H](C4)N5C)C3)c3c(N)ncnn23)cn1` [Example 969, N-[(3R)-1-{4-amino-7-[6-(propane-2-sulfonyl)pyridin-3-yl]pyrrolo[2,1-f][1,2,4]triazin-5-yl}piperidin-3-yl]-5-chloro-3-{[(R,3R,5S)-8-methyl-8-azabicyclo[3.2.1]octan-3-yl]oxy}thiophene-2-carboxamide]: 4 nM; `CCN1[C@@H]2CCC[C@H]1C[C@H](Oc1nc(C)sc1C(=O)N[C@@H]1CCCN(c3cc(-c4ccc(=O)n(CC(F)F)n4)n4ncnc(N)c34)C1)C2` [Example 970, N—((R)-1-(4-amino-7-(1-(2,2-difluoroethyl)-6-oxo-1,6-dihydropyridazin-3-yl)pyrrolo[2,1-f][1,2,4]triazin-5-yl)piperidin-3-yl)-4-(((1R,3s,5S)-9-ethyl-9-azabicyclo[3.3.1]nonan-3-yl)oxy)-2-methylthiazole-5-carboxamide]: 5 nM.
For the compound `COCCn1nc(-c2cc(N3CCC[C@@H](NC(=O)c4sc(Cl)cc4O[C@@H]4C[C@H]5CCC[C@@H](C4)N5C)C3)c3c(N)ncnn23)ccc1=O` [Example 971, N—((R)-1-(4-Amino-7-(1-(2-methoxyethyl)-6-oxo-1,6-dihydropyridazin-3-yl)pyrrolo[2,1-f][1,2,4]triazin-5-yl)piperidin-3-yl)-5-chloro-3-(((1R,3s,5S)-9-methyl-9-azabicyclo[3.3.1]nonan-3-yl)oxy)thiophene-2-carboxamide], the 50% inhibitory concentration (IC50) amounted to 1 nM.
The result for `Nc1ncnn2c(-c3ccc(=O)n(CC(F)F)n3)cc(N3CCC[C@@H](NC(=O)c4sc(Cl)cc4O[C@@H]4C[C@H]5CCC[C@@H](C4)N5CCO)C3)c12` [Example 972, N—((R)-1-(4-amino-7-(1-(2,2-difluoroethyl)-6-oxo-1,6-dihydropyridazin-3-yl)pyrrolo[2,1-f][1,2,4]triazin-5-yl)piperidin-3-yl)-5-chloro-3-(((1R,3s,5S)-9-(2-hydroxyethyl)-9-azabicyclo[3.3.1]nonan-3-yl)oxy)thiophene-2-carboxamide] reads 2 nM; that for `Cc1nc(O[C@H]2CC[C@@H](N(C)C)CC2)c(C(=O)N[C@@H]2CCCN(c3cc(-c4ccc(=O)n(CC(F)(F)F)n4)n4ncnc(N)c34)C2)s1` [Example 973, N—((R)-1-(4-amino-7-(6-oxo-1-(2,2,2-trifluoroethyl)-1,6-dihydropyridazin-3-yl)pyrrolo[2,1-f][1,2,4]triazin-5-yl)piperidin-3-yl)-4-(((1s,4S)-4-(dimethylamino)cyclohexyl)oxy)-2-methylthiazole-5-carboxamide], 4 nM.
Regarding `CN1[C@@H]2CC[C@H]1C[C@H](Oc1cc(Cl)sc1C(=O)N[C@@H]1CCCN(c3cc(-c4ccnn4C)n4ncnc(N)c34)C1)C2` [Example 975, N—((R)-1-(4-amino-7-(1-methyl-1H-pyrazol-5-yl)pyrrolo[2,1-f][1,2,4]triazin-5-yl)piperidin-3-yl)-5-chloro-3-(((1R,3s,5S)-8-methyl-8-azabicyclo[3.2.1]octan-3-yl)oxy)thiophene-2-carboxamide], it took 7 nM to reach half-maximal inhibition (IC50).
As to `CN1[C@@H]2CC[C@H]1C[C@H](Oc1cc(Cl)sc1C(=O)N[C@@H]1CCCN(c3c(F)c(C4=CCOC4)n4ncnc(N)c34)C1)C2` [Example 976, N—((R)-1-(4-amino-7-(2,5-dihydrofuran-3-yl)-6-fluoropyrrolo[2,1-f][1,2,4]triazin-5-yl)piperidin-3-yl)-5-chloro-3-(((1R,3s,5S)-8-methyl-8-azabicyclo[3.2.1]octan-3-yl)oxy)thiophene-2-carboxamide], the 50% inhibitory concentration (IC50) was determined as 1 nM.
The compound `Cc1nc(O[C@H]2CC[C@@H](NC(C)C)CC2)c(C(=O)N[C@@H]2CCCN(c3cc(C4=CC(=O)OC4)n4ncnc(N)c34)C2)s1` [Example 977, N—((R)-1-(4-amino-7-(5-oxo-2,5-dihydrofuran-3-yl)pyrrolo[2,1-f][1,2,4]triazin-5-yl)piperidin-3-yl)-4-(((1s,4S)-4-(isopropylamino)cyclohexyl)oxy)-2-methylthiazole-5-carboxamide] gave a concentration for half-maximal inhibition (IC50) of 1 nM.
The compound `Cc1nc(O[C@H]2CC[C@@H](NCC(C)(C)O)CC2)c(C(=O)N[C@@H]2CCCN(c3cc(-c4ccc(C(N)=O)c(F)c4)n4ncnc(N)c34)C2)s1` [Example 978, N—((R)-1-(4-Amino-7-(4-carbamoyl-3-fluorophenyl)pyrrolo[2,1-f][1,2,4]triazin-5-yl)piperidin-3-yl)-4-(((1s,4S)-4-((2-hydroxy-2-methylpropyl)amino)cyclohexyl)oxy)-2-methylthiazole-5-carboxamide] gave an IC50 of 3 nM.
For `Cc1nc(O[C@H]2CC[C@@H](NCCC#N)CC2)c(C(=O)N[C@@H]2CCCN(c3cc(-c4ccc(C(N)=O)c(F)c4)n4ncnc(N)c34)C2)s1` [Example 979, N—((R)-1-(4-Amino-7-(4-carbamoyl-3-fluorophenyl)pyrrolo[2,1-f][1,2,4]triazin-5-yl)piperidin-3-yl)-4-(((1s,4S)-4-((2-cyanoethyl)amino)cyclohexyl)oxy)-2-methylthiazole-5-carboxamide], the midpoint of inhibition, the IC50, lay at 4 nM.
`Cc1nc(O[C@H]2CC[C@@H](NC3CCOC3)CC2)c(C(=O)N[C@@H]2CCCN(c3cc(-c4ccc(=O)n(CC(F)F)n4)n4ncnc(N)c34)C2)s1` (stereo partly drawn) [Example 980, N—((R)-1-(4-Amino-7-(1-(2,2-difluoroethyl)-6-oxo-1,6-dihydropyridazin-3-yl)pyrrolo[2,1-f][1,2,4]triazin-5-yl)piperidin-3-yl)-2-methyl-4-(((1s,4S)-4-((tetrahydrofuran-3-yl)amino)cyclohexyl)oxy)thiazole-5-carboxamide] had an IC50 of 1 nM.
For the compound `CCN1CCC(Oc2nc(C)sc2C(=O)N[C@@H]2CCCN(c3cc(-c4ccc(C(N)=O)c(F)c4)n4ncnc(N)c34)C2)CC12CCC2` (stereo partly drawn) [Example 982], inhibition was half-maximal at 6 nM (IC50).
Consider `CCN1CCC(Oc2nc(C)sc2C(=O)N[C@@H]2CCCN(c3cc(C4=CCN(C(=O)C5(C#N)CC5)C4)n4ncnc(N)c34)C2)CC1(C)C` (stereo partly drawn) [Example 985, N—((R)-1-(4-Amino-7-(1-(1-cyanocyclopropane-1-carbonyl)-2,5-dihydro-1H-pyrrol-3-yl)pyrrolo[2,1-f][1,2,4]triazin-5-yl)piperidin-3-yl)-4-((1-ethyl-2,2-dimethylpiperidin-4-yl)oxy)-2-methylthiazole-5-carboxamide], for which the half-maximal inhibitory concentration (IC50) turned out to be 4 nM.
On to `CC(=O)N1CC=C(c2cc(N3CCC[C@@H](NC(=O)c4sc(Cl)cc4OC4CC5COCC(C4)N5)C3)c3c(N)ncnn23)C1` (stereo partly drawn) [Example 986E, 3-((3-Oxa-9-azabicyclo[3.3.1]nonan-7-yl)oxy)-N—((R)-1-(7-(1-acetyl-2,5-dihydro-1H-pyrrol-3-yl)-4-aminopyrrolo[2,1-f][1,2,4]triazin-5-yl)piperidin-3-yl)-5-chlorothiophene-2-carboxamide], for which inhibition was half-maximal at 0.9 nM (IC50).
On to `CC(=O)N1CC=C(c2cc(N3CCC[C@@H](NC(=O)c4sc(Cl)cc4OC4CC5COCC(C4)N5CCO)C3)c3c(N)ncnn23)C1` (stereo partly drawn) [Example 986], for which the IC50 is 37 nM.
`CC(=O)N1CC=C(c2cc(N3CCC[C@@H](NC(=O)c4sc(Cl)cc4OC4CCCN(C(C)C)CC4)C3)c3c(N)ncnn23)C1` (stereo partly drawn) [Example 987] yielded an IC50 of 1 nM.
Next, `CC(=O)N1CC=C(c2cc(N3CCC[C@@H](NC(=O)c4sc(Cl)cc4O[C@@H]4C[C@H]5CC[C@@H](C4)O5)C3)c3c(N)ncnn23)C1` [Example 988, 3-(((IR,3s.5S)-8-oxabicyclo[3.2.1]octan-3-y1)oxy)-N-((R)-1-(7-(1-acetyl-2,5-dihydro-1H-pyrrol-3-y1)-4-aminopyrrolo[2,1-f][1,2,4]triazin-5-y1)piperidin-3-y1)-5-chlorothiophene-2-carboxamide]: 3 nM.
In turn, `CC(C)N1CC2CCC1CC2Oc1cc(Cl)sc1C(=O)N[C@@H]1CCCN(c2cc(-c3ccc(-n4cnnn4)nc3)n3ncnc(N)c23)C1` (stereo partly drawn) [Example 989, N—((R)-1-(7-(6-(1H-tetrazol-1-yl)pyridin-3-yl)-4-aminopyrrolo[2,1-f][1,2,4]triazin-5-yl)piperidin-3-yl)-5-chloro-3-((2-isopropyl-2-azabicyclo[2.2.2]octan-5-yl)oxy)thiophene-2-carboxamide] showed an IC50 of 0.9 nM.
`CN(C)CC(=O)N1CC2CCC1CC2Oc1cc(Cl)sc1C(=O)N[C@@H]1CCCN(c2cc(-c3ccc(-n4cnnn4)nc3)n3ncnc(N)c23)C1` (stereo partly drawn) [Example 990] displayed an IC50 of 1 nM.
The compound `CN1CC2CCC1CC2Oc1cc(Cl)sc1C(=O)N[C@@H]1CCCN(c2cc(-c3ccc(=O)n(CC(F)F)c3)n3ncnc(N)c23)C1` (stereo partly drawn) [Example 991, N—((R)-1-(4-amino-7-(1-(2,2-difluoroethyl)-6-oxo-1,6-dihydropyridin-3-yl)pyrrolo[2,1-f][1,2,4]triazin-5-yl)piperidin-3-yl)-5-chloro-3-((2-methyl-2-azabicyclo[2.2.2]octan-5-yl)oxy)thiophene-2-carboxamide] showed an IC50 of 0.8 nM.

The values are drawn from patent US20260250290A1 (BRISTOL-MYERS SQUIBB COMPANY, priority 2023, published 2026).
